Results from US20200383926A1, “ENTERIC COATED PHARMACEUTICAL COMPOSITION AND USE THEREOF” (SHIN ERA TECHNOLOGY CO. LTD., priority 2017, published 2020).

Assay: Phosphate binding assay (molybdate colorimetry, OD700) at pH 8.3
Details: KH2PO4 0.53M, room temperature (about 25° C.), 2 hours
Description: Since the phosphate uptake in human body mostly takes place in the intestine instead of stomach, we tested the phosphate-binding ability of the aforesaid 60% deacetylation chitosan citrate (CHS-60L) and 90% deacetylation chitosan citrate (CHS-90L) in an environment of pH 8.3, which mimicked to the intestine environment in vivo.
Briefly, KH2PO4 and the present chitosan citrate were mixed at room temperature (about 25° C.) for 2 hours. Then, 2 μl of the mixture of each group (and KH2PO4 without reaction with binding agents) was mixed with 120 μl of acetate buffer (0.1 N acetic acid and 0.025 N of CH3COONa), 12 μl of ascorbic acid (1 wt %), and […] of NH4MoO4 (1%, in 0.05 N H2SO4) at room temperature for 20 to 30 minutes. After that, the OD700 of the mixture was detected by spectrometer. The conventional phosphate binding agent, calcium carbonate, was used as positive control of the experiment.

Compound: O=C([O-])[O-].[Ca+2] [calcium carbonate]
- Binding ability (%) (binding agent 10 mM): 70.90%
- Binding ability (%) (binding agent 20 mM): 75.40%
